Measurements from patent US10639296B2, “Methods to mitigate injury from radiation exposure” (priority 2009, dated 2020).
Read-outs that look alike come from different tables or passages of the source.

What was measured:
mice [1] = details: total body dose of 8 Gy; Mozobil I.P. 5 mg/kg single injection days later
Description: We exposed mice to radiation, total body dose of 8 Gy at a rate of approximately 1 Gy per minute. Subsequently, days later, we administered Mozobil [I.P.] at 5 mg/kg dose as a single injection. We monitored the test mice for lethality.

C57BL/6 mice [2] = details: for cutaneous injury (skin reaction): 5 mg/kg I.P. twice, one week after radiation and 48 hours later
Description: We exposed the legs of mice to 25 or 30 Gy radiation at a dose rate of approximately 5 Gy per minute. Subsequently, one week later, we administered Mozobil [LP.] at 5 mg/kg dose followed by another Mozobil administration [5 mg/kg, I.P.] 48 hours later. We monitored the test mice for lesions relating to skin damage.
Skin damage to the hind leg of C57BL/6 mice was measured using a semi-quantitative scale (TABLE ONE).

TGF-beta = details: 30 days after 30 Gy; 5 mg/kg I.P. on day 7 and 9 post-irradiation; vs 30 Gy alone
From the text: (§1) Cytokine concentrations were from multiple samples, n=3 or 4 from single mice: one control, one receiving radiation alone and one receiving combined drug and radiation.

TNF-alpha = details: 30 days after 30 Gy; 5 mg/kg I.P. on day 7 and 9 post-irradiation; vs 30 Gy alone
From the text: as §1

C57BL/6 mice [3] = details: for Median survival: 5 mg/kg I.P.
C57BL/6 mice [4] = details: 6.5 Gy TBI; 5 mg/kg 72 h after the radiation; 12 days after radiation exposure; n=8
Balb/c mice = details: 5 mg/kg i.p. 24 hours after 7 Gy
mice [5] = details: data not shown
dogs = details: cited from earlier work
[6] = rapid peak and subsequent clearance; cited from earlier work
hematopoietic stem cells = details: cited from earlier work
normal donors = details: cited from earlier work
[7] = dogs after lethal dose of TBI, AMD-3100 mobilized peripheral blood mononuclear cells

c1cc(CN2CCCNCCNCCCNCC2)ccc1CN1CCCNCCNCCCNCC1 [plerixafor]
survival (lethality) (mice [1]): significantly enhanced | cutaneous injury (skin reaction) (C57BL/6 mice [2]; 25 Gy, to day 60): soon resolved completely | cutaneous injury (skin reaction) (C57BL/6 mice [2]; 30 Gy, approximately day 60): had some hair loss but were otherwise normal | skin damage (lesions) (C57BL/6 mice [2]; legs, 25 or 30 Gy, 5 mg/kg one week later and again 5 mg/kg I.P. 48 hours later): significantly reduced | TGF-beta in irradiated skin (TGF-beta): significantly reduced | TNF-alpha in irradiated skin (TNF-alpha): significantly reduced | Survival at 30 days (C57BL/6 mice [3]; 5 mg/kg I.P. administered 24 h after radiation exposure): 0% | Survival at 30 days (C57BL/6 mice [3]; 5 mg/kg I.P. administered 48 h after radiation exposure): 14% | Survival at 30 days (C57BL/6 mice [3]; 5 mg/kg I.P. administered 72 h after radiation exposure): 69% | Median survival (C57BL/6 mice [3]; 48 h between radiation and drug): 18 days | Median survival (C57BL/6 mice [3]; 72 h between radiation and drug): > 30 days | mitigation from TBI-induced lethality (C57BL/6 mice [3]; given after total body irradiation): significant mitigation | number of endogenous spleen colonies (mean) (C57BL/6 mice [4]): 47±9 | Median survival (Balb/c mice): 18 days | Leg contraction (percent leg extension relative to the unirradiated leg) (mice [5]): significantly improved | tolerability (adverse effects) (dogs; dog, in vivo): well tolerated without noticeable adverse effects | Median days to neutrophil recovery (dogs; [7]): 9 days | Median days to platelet recovery (dogs; [7]): 25 days | lethality after total body irradiation (dogs; dogs): mitigates lethality | clearance of the drug after injection [6]: ≤ 24 h | mobilization of hematopoietic stem cells from the bone marrow to the bloodstream (hematopoietic stem cells; mice, dogs, and humans): strong inducer | G-CSF-induced mobilization of HPCs (hematopoietic stem cells; mouse and human hematopoietic progenitor cells): synergistically augmented | side effects of single-dose administration (normal donors): very minor
